Laboratory results from patent US9376382B2, “N-substituted isopropyldimethyl azulene sulfonamide derivatives, and preparation method and use thereof” (Sichuan Guokang Pharmaceutical Co., Ltd., priority 2011, dated 2016).
“Also recorded” adds a separate entry of the source.

Columns and labels:
[1] = Stability studies (light, humidity, heat), overall comparison; settings: summary of high-temperature, high humidity and intense light tests
Description: (§1) The test samples were open-stored in culture dishes at 60° C. for 10 days, and taken and detected on Day 5 and Day 10. • The characteristics, especially colour change were observed. • Melting points were measured by automatic melting point apparatus. • By self-reflection, TLC is used to observe whether the spot numbers were increased after 5 days and 10 days.
(§2) The test samples were open-stored in closed constant humidity desiccators under the condition of 25° C. and relative humidity of 90%+5% for 10 days, and taken and detected on Day 5 and Day 10. Meanwhile, each sample was accurately weighed before and after test.
(§3) The test samples were open-stored in “adjustable light boxes” under the conditions of illumination of 4500LX±500LX for 10 days, and taken and detected on Day 5 and Day 10 with regards to dry items. • The characteristics, especially colour change was observed. • Melting points were measured by an automatic melting point apparatus. • By self-reflection, TLC is used to observe whether the spot numbers were increased after 5 days and 10 days.

[2] = High-temperature test (60° C.), stability study; assay type: physicochemical; settings: open-stored; for Appearance Day 5: Day 5, cell wraps; for Appearance Day 5 / Appearance Day 10: first line given; for Appearance Day 10: Day 10, cell wraps;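 for all read-outs here: samples kept uncovered in dishes at 60 °C for up to 10 days and examined on Day 5 and Day 10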
Description: as §1

[3] = Intense light irradiation test (4500LX ± 500LX), stability study; assay type: physicochemical; settings: for Appearance Day 0: Day 0, cell wraps; for Appearance Day 0 / Appearance Day 5 / Appearance Day 10: first line given; for Appearance Day 5: Day 5, cell wraps; for Appearance Day 10: Day 10, cell wraps
Description: as §3

[4] = system: ethanol-induced gastric ulcer; experiment: Anhydrous ethanol-induced gastric ulcer in mice; assay type: in vivo, Kunming mice; parameters: key to Gastri ulcer score (X ± SD) / Ulcer score (X ± SD) / Gastric ulcer score (X ± SD): summed pathology score: congestion 1, hemorrhage/erosion 1, linear erosion 3; settings: for Inhibition rate (%): inhibition rate of ulcer vs model group; for Gastri ulcer score (X ± SD): dose equimolar to azulene sulfonate sodium 3.0 mg/kg (Omeprazole 13.4 mg/kg), model group 13.00 ± 1.77; for anti-gastric ulcer effect in words: ethanol-induced gastric ulcer in mice, compared to the model group
Description: Kunming mice, half male and half female, weighing 18-22 g, provided by the West China Animal Center
(1) Azulene sodium sulphonate was added with 0.5% CMC to prepare a suspension with concentration of 0.15 mg/ml.
(2) 20 mg of Omeprazole was added with 0.5% CMC to prepare a suspension with concentration of 0.67 mg/ml.
Kunming mice were randomly grouped according the body weight (one model control group or negative control group, one Omeprazole control group or positive control group, one Azulene sodium sulphonate control group, twelve test drug groups), eight mice for each group, half male and half female.
Administration: Model control group was administrated intragastrically with 0.5% CMC solution at a dose of 0.4 ml/20 g; Omeprazole control group was administrated intragastrically with Omeprazole at a dose of 0.4 ml/20 g, Azulene sodium sulphonate control group and each test drug groups were administrated intragastrically with their respective drug at a dose of 0.4 ml/20 g. The mice in each group were administrated once a day for successive five days. 0.5 hour after final administration, the mice in each group were administrated intragastrically with 0.5 ml of anhydrous ethanol, one hour later the mice were executed and dissected, and their stomaches were taken, washed and scored according to the pathological degree. For local congestion and rubefaction, score was 1; for petechial hemorrhage or erosion, score was respectively 1, for each linear erosion, score was 3. Statistical analysis was performed. Ulcer scores were calculated, significant differences between the groups were compared and the inhibition rates of ulcer were calculated [Inhibition rate of ulcer=(ulcer score of model group−ulcer score of drug administration group)/ulcer score of model group].

[5] = High humidity test (25° C., relative humidity 90% ± 5%), stability study; assay type: physicochemical; settings: RH 90% ± 5%; for Appearance Day 0: Day 0, cell wraps; for Appearance Day 0 / Appearance Day 5 / Appearance Day 10: first line given; for Appearance Day 5: Day 5, cell wraps; for Appearance Day 10: Day 10, cell wraps;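 for all read-outs here: samples kept uncovered in sealed humidity desiccators, appearance judged mainly by colour change, melting point on an automatic apparatus, TLC checked for extra spots versus start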
Description: as §2
The characteristics, especially colour change was observed.
Melting points were measured by an automatic melting point apparatus.
By self-reflection, TLC is used to observe whether the spot numbers were increased after 5 days and 10 days.

[6] = Stability of the purified compound in the air; assay type: physicochemical
[7] = Table 4, mice, intragastric once a day for five days
[8] = Table 5 data, relative increase

SMILES: COc1ccc(NS(=O)(=O)c2cc(C)c3cc(C(C)C)ccc(C)c2-3)c(OC)c1 [4b, N-(2,4-dimethoxyphenyl)-3,8-dimethyl-5-isopropyl-1-azulene sulfonamide]
- light, humidity and heat stability in words [1]: better light, humidity and heat stability than azulene sulfonate sodium
- Melting point Day 0 [2]: 114.0-115.5 °C
- Spot numbers on TLC Day 0 [2]: 1
- Melting point Day 5 [2]: 114.5-116.0 °C
- Spot numbers on TLC Day 5 [2]: 1
- Appearance Day 5 [2]: purple
- Melting point Day 10 [2]: 113.5-115.0 °C
- Spot numbers on TLC Day 10 [2]: 1
- Appearance Day 10 [2]: purple
- Spot numbers on TLC Day 0 [3]: 1
- Appearance Day 0 [3]: purple
- Spot numbers on TLC Day 5 [3]: 1
- Appearance Day 5 [3]: purple
- Spot numbers on TLC Day 10 [3]: 1
- Appearance Day 10 [3]: purple
- Inhibition rate (%) ([4]; Table 4): 52.77%
- Gastri ulcer score (X ± SD) [4, 7]: 6.14 ± 2.85
- anti-gastric ulcer effect in words [4]: significantly relieve the pathological degree
- Melting point Day 0 [5]: 114.0-115.5 °C
- Spot numbers on TLC Day 0 [5]: 1
- hygroscopic rate (%) Day 0 [5]: 0.97%
- Appearance Day 0 [5]: purple
- Melting point Day 5 [5]: 114.0-115.5 °C
- Spot numbers on TLC Day 5 [5]: 1
- hygroscopic rate (%) Day 5 [5]: 1.24%
- Appearance Day 5 [5]: purple
- Melting point Day 10 [5]: 114.0-115.5 °C
- Spot numbers on TLC Day 10 [5]: 1
- Appearance Day 10 [5]: purple
- melting point: 114 to 116 °C

SMILES: Cc1cc(S(=O)(=O)Nc2cccc3ccccc23)c2c(C)ccc(C(C)C)cc1-2 [4d, N-(1-naphthyl)-3,8-dimethyl-5-isopropyl-1-azulene sulfonamide]
- light, humidity and heat stability in words [1]: better light, humidity and heat stability than azulene sulfonate sodium
- Melting point Day 0 [2]: 140.0-142.5 °C
- Spot numbers on TLC Day 0 [2]: 1
- Melting point Day 5 [2]: 141.5-142.5 °C
- Spot numbers on TLC Day 5 [2]: 1
- Appearance Day 5 [2]: purple
- Melting point Day 10 [2]: 140.0-142.5 °C
- Spot numbers on TLC Day 10 [2]: 1
- Appearance Day 10 [2]: purple
- Melting point Day 0 [3]: 140.0-142.5 °C
- Spot numbers on TLC Day 0 [3]: 1
- Appearance Day 0 [3]: purple
- Melting point Day 5 [3]: 141.5-143.0 °C
- Spot numbers on TLC Day 5 [3]: 1
- Appearance Day 5 [3]: purple
- Melting point Day 10 [3]: 140.0-142.0 °C
- Spot numbers on TLC Day 10 [3]: 1
- Appearance Day 10 [3]: purple
- Inhibition rate (%) ([4]; Table 4): 50.54%
- Gastri ulcer score (X ± SD) [4, 7]: 6.43 ± 2.99
- anti-gastric ulcer effect in words [4]: significantly relieve the pathological degree
- Melting point Day 0 [5]: 140.0-142.5 °C
- Spot numbers on TLC Day 0 [5]: 1
- hygroscopic rate (%) Day 0 [5]: 1.23%
- Appearance Day 0 [5]: purple
- Melting point Day 5 [5]: 140.0-142.5 °C
- Spot numbers on TLC Day 5 [5]: 1
- hygroscopic rate (%) Day 5 [5]: 1.61%
- Appearance Day 5 [5]: purple
- Melting point Day 10 [5]: 140.0-142.5 °C
- Spot numbers on TLC Day 10 [5]: 1
- Appearance Day 10 [5]: purple
- melting point: 140 to 142 °C

SMILES: Cc1cc(S(=O)(=O)NC2CCCCC2)c2c(C)ccc(C(C)C)cc1-2 [4i, N-cyclohexyl-3,8-dimethyl-5-isopropyl-1-azulene sulfonamide]
- light, humidity and heat stability in words [1]: better light, humidity and heat stability than azulene sulfonate sodium
- Melting point Day 0 [2]: 107.5-108.5 °C
- Spot numbers on TLC Day 0 [2]: 1
- Melting point Day 5 [2]: 107.0-108.5 °C
- Spot numbers on TLC Day 5 [2]: 1
- Appearance Day 5 [2]: purple
- Melting point Day 10 [2]: 107.0-108.5 °C
- Spot numbers on TLC Day 10 [2]: 1
- Appearance Day 10 [2]: purple
- Melting point Day 0 [3]: 107.5-108.5 °C
- Spot numbers on TLC Day 0 [3]: 1
- Appearance Day 0 [3]: purple
- Melting point Day 5 [3]: 107.5-108.5 °C
- Spot numbers on TLC Day 5 [3]: 1
- Appearance Day 5 [3]: purple
- Spot numbers on TLC Day 10 [3]: 1
- Appearance Day 10 [3]: purple
- Inhibition rate (%) ([4]; Table 4): 50.92%
- Gastri ulcer score (X ± SD) [4, 7]: 6.38 ± 3.85
- anti-gastric ulcer effect in words [4]: significantly relieve the pathological degree
- Melting point Day 0 [5]: 108.5-109.0 °C
- Spot numbers on TLC Day 0 [5]: 1
- hygroscopic rate (%) Day 0 [5]: 1.89%
- Appearance Day 0 [5]: purple
- Melting point Day 5 [5]: 108.5-109.5 °C
- Spot numbers on TLC Day 5 [5]: 1
- hygroscopic rate (%) Day 5 [5]: 2.35%
- Appearance Day 5 [5]: purple
- Melting point Day 10 [5]: 107.5-108.5 °C
- Spot numbers on TLC Day 10 [5]: 1
- Appearance Day 10 [5]: purple
- melting point: 108 to 109 °C

SMILES: Cc1cc(S(=O)(=O)Nc2ccc(N)cc2)c2c(C)ccc(C(C)C)cc1-2 [4l, N-(4-aminophenyl)-3,8-dimethyl-5-isopropyl-1-azulene sulfonamide]
- light, humidity and heat stability in words [1]: better light, humidity and heat stability than azulene sulfonate sodium
- Melting point Day 0 [2]: 87.5-89.0 °C
- Spot numbers on TLC Day 0 [2]: 1
- Melting point Day 5 [2]: 88.0-89.0 °C
- Spot numbers on TLC Day 5 [2]: 1
- Appearance Day 5 [2]: purple
- Melting point Day 10 [2]: 88.0-89.0 °C
- Spot numbers on TLC Day 10 [2]: 1
- Appearance Day 10 [2]: purple
- Melting point Day 0 [3]: 87.5-89.0 °C
- Spot numbers on TLC Day 0 [3]: 1
- Appearance Day 0 [3]: purple
- Melting point Day 5 [3]: 87.5-89.0 °C
- Spot numbers on TLC Day 5 [3]: 1
- Appearance Day 5 [3]: purple
- Melting point Day 10 [3]: 87.5-89.5 °C
- Spot numbers on TLC Day 10 [3]: 1
- Appearance Day 10 [3]: purple
- Inhibition rate (%) ([4]; Table 5): 45.20%
- Ulcer score (X ± SD) ([4]; Table 5, mice, intragastric once a day for five days, equimolar doses, model group 20.33 ± 12.23): 11.14 ± 6.41
- increase of inhibition rate compared to Omeprazole [4, 8]: 23%
- increase of inhibition rate compared to azulene sulfonate sodium [4, 8]: 38%
- anti-gastric ulcer effect in words [4]: significantly relieve the pathological degree; also recorded: better therapeutic effect on gastric ulcer than azulene sulfonate sodium and omeprazole
- Melting point Day 0 [5]: 87.5-89.0 °C
- Spot numbers on TLC Day 0 [5]: 1
- hygroscopic rate (%) Day 0 [5]: 1.09%
- Appearance Day 0 [5]: purple
- Melting point Day 5 [5]: 87.5-89.5 °C
- Spot numbers on TLC Day 5 [5]: 1
- hygroscopic rate (%) Day 5 [5]: 1.81%
- Appearance Day 5 [5]: purple
- Melting point Day 10 [5]: 87.5-89.5 °C
- Spot numbers on TLC Day 10 [5]: 1
- Appearance Day 10 [5]: purple
- melting point: 88 to 90 °C

SMILES: Cc1cc(S(=O)(=O)NN)c2c(C)ccc(C(C)C)cc1-2 [4m, N-amino-3,8-dimethyl-5-isopropyl-1-azulene sulfonamide]
- stability in the air [6]: deteriorated soon in the air and had a very poor stability
